Experimental data from patent US7790188B2, “Antifungal protein and usage thereof” (Food Industry Research and Development Institute, priority 2006, dated 2010).

What was measured:
H. panici BCRC 35004 = experiment: Antifungal activity assay (pathogen antagonistic dosage assay, paper discs on PDA plate); assay type: cell-based, Helminthosporium panici; settings: 28° C.
Procedure: (§1) The fungal strains for testing the antifungal activities of Monascus strains or isolated and purified antifungal protein, MAFP1, are selected from Helminthosporium panici BCRC 35004 and Paecilomyces variotii BCRC 33174. The fungal strains were inoculated on PDA (Potato Dextrose Agar, Difico Co.) culture plate and cultured at 25° C. for 7 to 14 days. Pathogen antagonistic dosage assays were conducted to confirm the antifungal activity of the purified MAFP1 protein. Fungal blocks of pathogenic fungi (P. variotii BCRC 33174 and H. panici BCRC 35004) were place in the center of PDA plates. 6 mm paper discs with different concentrations of MAFP1 solutions (containing 0 to 0.8 μg of purified MAFP1 protein) were placed surround the fungal block of pathogenic fungus. The plates were cultured at 28° C. and the growth inhibitions of the pathogenic fungi were observed.

P. variotii BCRC 33174 = experiment: as above; assay type: cell-based, Paecilomyces variotii; settings: 28° C.
Procedure: as §1

[1] = discs with 0 to 0.8 μg MAFP1, PDA plate

MAFP1: Antifungal protein of about 7 kDa purified from M. pilosus BCRC 38093 culture broth; mature form, SEQ ID NO: 3 (LSKYGGECSLQHNTCTYLKGGKNQVVHCGSAANQKCKSDRHHCEYDEHHKTVNCQTPV; listed as Monascus pilosus)
growth inhibition of H. panici (H. panici BCRC 35004; 0.4 μg of purified MAFP1 protein on 6 mm paper disc, PDA plate): can significantly inhibit the growth | dependence of growth inhibition of pathogenic fungus on MAFP1 concentration (H. panici BCRC 35004; [1]): the higher the MAFP1 concentration, the stronger the inhibitory activity | growth inhibition of P. variotii (P. variotii BCRC 33174; 0.2 μg of purified MAFP1 protein on 6 mm paper disc, PDA plate): can significantly inhibit the growth | dependence of growth inhibition of pathogenic fungus on MAFP1 concentration (P. variotii BCRC 33174; [1]): the higher the MAFP1 concentration, the stronger the inhibitory activity
